Counter-ions that a name gives are not always drawn.
assay: in vitro; conditions: rat, gh3-tre-luc cells, AC50 (uM) modified / 1000

Compound	CC50 at 24 h [µM]
C=C(CC(=O)O)C(=O)O [Methylenebutanedioic acid]	> 90
NC(=O)N1C(=O)/C(=C(\O)c2cccs2)c2cc(Cl)ccc21 [Tenidap]	41.8
Cc1ccc(C)c(O)c1 [2,5-Dimethylphenol]	> 90
CCCCCc1ccc(C)cc1O [Amylmetacresol]	> 50
O=C(O)c1cccc([N+](=O)[O-])c1 [3-Nitrobenzoic acid]	> 90
COc1ccccc1N1CCN(CCCNc2cc(=O)n(C)c(=O)n2C)CC1 [Urapidil]	> 50
CCCCC(C)(O)C/C=C/[C@H]1[C@H](O)CC(=O)[C@@H]1CCCCCCC(=O)OC (mixture of isomers) [Misoprostol]	> 50
Brc1ccc(Oc2ccc(Br)cc2)cc1 [4,4'-Dibromodiphenyl ether]	> 90
CCOC(=O)c1ccc(I)cc1 [Ethyl 4-iodobenzoate]	> 90
CC(C)C(O)C(C)(C)CO (stereo not shown) [2,2,4-Trimethyl-1,3-pentanediol]	> 90
Cc1ccccc1S(=O)(=O)O [Sodium 2-methylbenzenesulfonate]	> 100
CCCOC(=O)CCCCC(=O)OCCC [Dipropyl hexanedioate]	> 90
CCCCC(C#N)(Cn1cncn1)c1ccc(Cl)cc1 (stereo not shown) [Myclobutanil]	> 90
Cc1cnc2c(C(=O)O)c(Cl)ccc2c1 [Quinmerac]	> 90
O=C(OCC1CCC2OC2C1)C1CCC2OC2C1 (stereo not shown) [ECC]	> 100
CC(C)(C)C(=O)Oc1ccc(S(=O)(=O)Nc2ccccc2C(=O)NCC(=O)O)cc1 [Sivelestat sodium tetrahydrate]	> 50
N=C(N)NCc1cccc(I)c1 [3-Iodobenzylguanidine hemisulfate]	> 50
CCCCC[C@@H](O)[C@H]1C(=O)O[C@H](C)[C@@H](O)/C=C/C=C/C=C/C=C/C=C(\C)[C@@H](O)[C@H](O)[C@H](O)C[C@H](O)C[C@H](O)C[C@H](O)C[C@H](O)C[C@@H]1O [Pentamycin]	> 50
OC12N=C(c3ccccc3)SC1Cc1cc(Cl)ccc12 (stereo not shown) [HMR1426]	56.9
O=C(OCCOCCOCCOC(=O)c1ccccc1)c1ccccc1 [Triethylene glycol dibenzoate]	> 90
CC(C)(C)c1ccc(CCC=O)cc1 [3-(4-tert-Butylphenyl)propanal]	> 90

Compound	CC50 at 24 h [µM]
O=C(O)CCC/C=C\C[C@H]1[C@H](/C=C/[C@H](O)COc2cccc(Cl)c2)[C@@H](O)C[C@H]1O [Cloprostenol sodium]	> 50
C=CC[N@@+]12CC[C@@]34c5ccccc5N5/C=C6/[C@H]7C[C@H]8[C@@]9(CC[N@@+]8(CC=C)C/C7=C/CO)c7ccccc7N(/C=C(/[C@@H](C[C@@H]31)/C(=C\CO)C2)[C@H]54)[C@@H]69 [Alcuronium chloride]	> 20
COc1ccc(NC(C)=O)cc1 [N-(4-Methoxyphenyl)acetamide]	> 90
CCN(CC)c1cccc(O)c1 [3-Diethylaminophenol]	> 90
CC(C)=CC(=O)C=C(C)C [Phorone]	> 90
C[N+]1([O-])CCOCC1 [4-Methylmorpholine 4-oxide]	> 90
C=C(C)C(=O)OCCOC(=O)C(=C)C [Ethylene glycol dimethacrylate]	> 90
Cc1ccc(S(=O)(=O)O)cc1C [Sodium xylenesulfonate]	> 90
CCc1cccc(C)c1N(C(=O)CCl)C(C)COC (stereo not shown) [Metolachlor]	> 90
CCC[N+]1(C)CCCC1 [1-Methyl-1-propylpyrrolidinium bromide]	> 90
CCCCCC1CCC(=O)O1 (stereo not shown) [gamma-Nonanolactone]	> 90
Nc1ccc(Cc2ccc(N)c(Cl)c2)cc1Cl [4,4'-Methylenebis(2-chloroaniline)]	67.7
Cc1ncc2n1-c1ccc(Cl)cc1C(c1ccccc1F)=NC2 [Midazolam hydrochloride]	> 50
Cc1c(COC(=O)[C@@H]2[C@H](/C=C(\Cl)C(F)(F)F)C2(C)C)cccc1-c1ccccc1 (racemic) [Bifenthrin]	> 90
COC(=O)CC(=O)OC [Dimethyl malonate]	> 100
CC(=O)OCCC(C)C [3-Methylbutyl acetate]	> 90
OCCOC[C@H]1O[C@H](OCCO)[C@H](OCCO)[C@@H](OCCO)[C@@H]1OCCO [Hydroxyethyl starch]	> 50
NCCc1c[nH]cn1 [Histamine]	> 50
O=C(OCC1CO1)C1CCCCC1C(=O)OCC1CO1 (stereo not shown) [1,2-Cyclohexanedicarboxylic acid, bis(oxiranylmethyl) ester]	44.7
CC(C)(CCC(=O)O)C(=O)O [2,2-Dimethylpentanedioic acid]	> 90
NC(=O)c1ccccc1O [Salicylamide]	> 90

Compound	CC50 at 24 h [µM]
COc1cc(NS(=O)(=O)c2ccc(N)cc2)nc(C)n1 [Sulfamethomidine]	> 50
Nc1c2c(nc3ccccc13)CCCC2 [1,2,3,4-Tetrahydro-9-acridinamine hydrochloride]	> 90
CCCC[C@H]1CN(CC2CCOCC2)C(=O)OC12CCN(C1(C)CCN(C(=O)c3c(C)ncnc3C)CC1)CC2 [PharmaGSID_48521]	> 80
CNCCS(=O)(=O)O [Sodium 2-(methylamino)ethanesulfonate]	> 90
CC1(C)C(O)C(C)(C)C1O (stereo not shown) [2,2,4,4-Tetramethylcyclobutane-1,3-diol]	> 90
Clc1ccccc1 [Chlorobenzene]	> 90
CC1(COc2ccc(CC3SC(=O)NC3=O)cc2)CCCCC1 (stereo not shown) [Ciglitizone]	26.4
CCC1(CCC(C)C)C(=O)NC(=O)NC1=O [Amobarbital]	> 90
Cc1cccc(C)c1NC(=O)c1ccccc1C(=O)O [Ftaxilide]	> 50
CCCCCCCCCCCCOC(=O)c1ccc(O)cc1 [Dodecylparaben]	26
CC#CCC(C)[C@H](O)/C=C/[C@@H]1[C@H]2C/C(=C/CCCC(=O)O)C[C@H]2C[C@H]1O (stereo partly shown) [Iloprost]	> 50
CC[C@H]1OC(=O)[C@H](C)[C@@H](O[C@H]2C[C@@](C)(OC)[C@@H](O)[C@H](C)O2)[C@H](C)[C@@H](O[C@@H]2O[C@H](C)C[C@H](N(C)C)[C@H]2O)[C@](C)(OC)C[C@@H](C)C(=O)[C@H](C)[C@@H](O)[C@]1(C)O [Clarithromycin]	> 90
c1ccc(-c2nc[nH]c2-c2ccccc2)cc1 [4,5-Diphenylimidazole]	> 50
Cc1cc(O)cc(C)c1Cl [4-Chloro-3,5-dimethylphenol]	> 90
CCO/N=C(\CC)C1=C(O)CC(c2c(C)cc(C)cc2C)CC1=O (stereo not shown) [Tralkoxydim]	> 90
FC(F)(F)c1ccc(Cl)cc1 [1-Chloro-4-(trifluoromethyl)benzene]	> 90
c1ccc2c(c1)CCNC2 [1,2,3,4-Tetrahydroisoquinoline]	> 90
COc1ccc(C2C(=O)c3ccccc3C2=O)cc1 [Anisindione]	> 50
NCCc1ccc(O)c(O)c1 [Dopamine hydrochloride]	55.3
CCCCCCCCCCCCCCCCCCOP(=O)([O-])OC1CC[N+](C)(C)CC1 [Perifosine]	> 20
O=C(Nc1ccc(Oc2ccc(Cl)cc2)c(Cl)c1)c1cc(I)cc(I)c1O [Rafoxanide]	36.2

same assay, conditions: rat, gh3-tre-luc cells, AC50 (uM) modified / 1000, Tox21_110001=Tox21_301070; viability, 1 nM T3 present, 24 h

Compound	CC50 at 24 h [µM]
BrCCCCBr [1,4-Dibromobutane]	> 90

Reference: article PMC6792352, “Limited Chemical Structural Diversity Found to Modulate Thyroid Hormone Receptor in the Tox21 Chemical Library” (Environmental Health Perspectives, 2019)
